Data published in the supplement of paper PMC10307832.

These cell lines were tested with COc1cccc2c1C(=O)c1c(O)c3c(c(O)c1C2=O)C[C@@](O)(C(=O)CO)C[C@@H]3O[C@H]1C[C@H](N)[C@H](O)[C@H](C)O1 [Doxorubicin] + NC(=O)Nc1cc(-c2cccc(F)c2)sc1C(=O)N[C@H]1CCCNC1 [AZD7762] (partner 0.2 µM) (assay: relative viability (nuclei count vs DMSO), 5 days (fraction); higher = more cells survive). Settings: first compound 0.1 µM.
Method in brief: (§1)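 Nuclei were stained with Hoechst during a one-step fixation (final 0.05% Triton X-100, 1% formaldehyde, 1 ug/ml Hoechst) carried out 5 days after dosing, then counted on 4× images. The cells, lung cancer lines in 1536-well plates, had been dosed by pin tool the day after seeding with one drug alone or a fixed anchor-drug dose plus five library-drug doses (not always all listed) in √10 steps. Relative viability is the nuclei count in treated wells divided by that in vehicle wells, and each value is the median of duplicate plates.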
ChaGo-K-1 was tested, and the relative viability was 0.811.
NCI-H522 was tested, and the relative viability was 0.918.
Work on SW 900 yielded a relative viability of 0.358.
Work on CAL-12T yielded a relative viability of 0.438.

What follows are cell lines tested with COc1cccc2c1C(=O)c1c(O)c3c(c(O)c1C2=O)C[C@@](O)(C(=O)CO)C[C@@H]3O[C@H]1C[C@H](N)[C@H](O)[C@H](C)O1 [Doxorubicin] + Nc1ncn([C@H]2C[C@H](O)[C@@H](CO)O2)c(=O)n1 [Decitabine] (partner 2 µM) in the same assay as above. Settings: first compound 0.001 µM.
Method in brief: as §1
NCI-H2342 showed a relative viability of 0.703.
Cell Line RERF-LC-KJ has a relative viability of 0.78.
NCI-H1651 gave a relative viability of 0.534.
With NCI-H1734 the relative viability was 0.491.
NCI-H2009 showed a relative viability of 0.445.
NCI-H596 gave a relative viability of 1.97.
SK-LU-1 showed a relative viability of 0.68.
With SW 1573 the relative viability was 0.566.
Work on LCLC-97TM1 yielded a relative viability of 0.229.
Cell Line NCI-H661 has a relative viability of 0.561.
With EMC-BAC-2 the relative viability was 0.983.
NCI-H2087 showed a relative viability of 0.291.
HCC-44 gave a relative viability of 1.01.
Work on NCI-H727 yielded a relative viability of 0.913.
With LK-2 the relative viability was 0.238.
For NCI-H2126, the relative viability was 0.531.
In the case of NCI-H1648, the relative viability is reported as 0.604.
In the case of COR-L23, the relative viability is reported as 0.427.
For COR-L 105, the relative viability was 0.626.
Work on LC-2-ad yielded a relative viability of 0.764.
In the case of LU99A, the relative viability is reported as 0.954.
In the case of ChaGo-K-1, the relative viability is reported as 0.524.
Work on A549 yielded a relative viability of 0.245.
NCI-H522 was tested, and the relative viability was 0.647.
With NCI-H520 the relative viability was 0.53.
NCI-H2023 gave a relative viability of 0.209.
NCI-H1650 showed a relative viability of 0.396.
Work on SK-MES-1 yielded a relative viability of 0.353.

Same assay, conditions: first compound 0.003162 µM
NCI-H2342 was tested, and the relative viability was 0.778.
Work on RERF-LC-KJ yielded a relative viability of 0.671.
Work on NCI-H1651 yielded a relative viability of 0.63.
In the case of NCI-H1734, the relative viability is reported as 0.494.
With NCI-H2009 the relative viability was 0.384.
NCI-H596 gave a relative viability of 1.09.
SK-LU-1 showed a relative viability of 0.745.
With SW 1573 the relative viability was 0.417.
LCLC-97TM1 gave a relative viability of 0.233.
NCI-H661 gave a relative viability of 0.568.
EMC-BAC-2 showed a relative viability of 0.781.
Work on NCI-H2087 yielded a relative viability of 0.264.
For HCC-44, the relative viability was 1.01.
For NCI-H727, the relative viability was 0.909.
In the case of LK-2, the relative viability is reported as 0.376.
Work on NCI-H2126 yielded a relative viability of 0.608.
NCI-H1648 showed a relative viability of 0.451.
For NCI-H1793, the relative viability was 0.482.
Cell Line H3255 has a relative viability of 0.533.
COR-L23 gave a relative viability of 0.452.
Work on COR-L 105 yielded a relative viability of 0.734.
Work on LC-2-ad yielded a relative viability of 0.842.
LU99A was tested, and the relative viability was 1.07.
ChaGo-K-1 gave a relative viability of 0.557.
A549 was tested, and the relative viability was 0.266.
For NCI-H522, the relative viability was 0.704.
SW 900 showed a relative viability of 0.461.
Cell Line NCI-H520 has a relative viability of 0.471.
In the case of NCI-H2023, the relative viability is reported as 0.219.
NCI-H1650 was tested, and the relative viability was 0.314.
Work on SK-MES-1 yielded a relative viability of 0.328.

Same assay, conditions: first compound 0.01 µM
NCI-H2342 gave a relative viability of 0.786.
RERF-LC-KJ was tested, and the relative viability was 0.598.
Work on NCI-H1651 yielded a relative viability of 0.638.
NCI-H1734 was tested, and the relative viability was 0.478.
With NCI-H2009 the relative viability was 0.333.
NCI-H596 showed a relative viability of 1.
SK-LU-1 gave a relative viability of 0.554.
Work on SW 1573 yielded a relative viability of 0.166.
Work on LCLC-97TM1 yielded a relative viability of 0.178.
Work on NCI-H661 yielded a relative viability of 0.506.
In the case of EMC-BAC-2, the relative viability is reported as 0.614.
NCI-H2087 gave a relative viability of 0.239.
HCC-44 showed a relative viability of 0.902.
LK-2 gave a relative viability of 0.251.
Cell Line NCI-H2126 has a relative viability of 0.562.
NCI-H1648 gave a relative viability of 0.599.
Cell Line NCI-H1793 has a relative viability of 0.501.
H3255 was tested, and the relative viability was 0.604.
Cell Line COR-L23 has a relative viability of 0.391.
COR-L 105 showed a relative viability of 0.506.
For LC-2-ad, the relative viability was 0.831.
With LU99A the relative viability was 0.951.
In the case of ChaGo-K-1, the relative viability is reported as 0.482.
In the case of A549, the relative viability is reported as 0.257.
Cell Line NCI-H522 has a relative viability of 0.634.
SW 900 showed a relative viability of 0.449.
Work on NCI-H520 yielded a relative viability of 0.416.
NCI-H2023 showed a relative viability of 0.171.
Work on NCI-H1650 yielded a relative viability of 0.361.
Work on SK-MES-1 yielded a relative viability of 0.261.

Same assay, conditions: first compound 0.03162 µM
NCI-H2342 gave a relative viability of 0.63.
Work on RERF-LC-KJ yielded a relative viability of 0.334.
NCI-H1651 showed a relative viability of 0.506.
NCI-H1734 showed a relative viability of 0.462.
For NCI-H2009, the relative viability was 0.263.
NCI-H596 was tested, and the relative viability was 0.86.
SK-LU-1 was tested, and the relative viability was 0.445.
Work on SW 1573 yielded a relative viability of 0.129.
LCLC-97TM1 was tested, and the relative viability was 0.176.
NCI-H661 gave a relative viability of 0.426.
For EMC-BAC-2, the relative viability was 0.321.
With NCI-H2087 the relative viability was 0.242.
In the case of HCC-44, the relative viability is reported as 0.964.
With NCI-H727 the relative viability was 0.89.
Cell Line LK-2 has a relative viability of 0.258.
NCI-H2126 gave a relative viability of 0.57.
In the case of NCI-H1648, the relative viability is reported as 0.421.
Cell Line NCI-H1793 has a relative viability of 0.403.
With H3255 the relative viability was 0.568.
For COR-L23, the relative viability was 0.253.
In the case of COR-L 105, the relative viability is reported as 0.53.
LC-2-ad gave a relative viability of 0.92.
In the case of LU99A, the relative viability is reported as 0.972.
ChaGo-K-1 showed a relative viability of 0.473.
With A549 the relative viability was 0.179.
Cell Line NCI-H522 has a relative viability of 0.683.
With SW 900 the relative viability was 0.403.
Work on NCI-H520 yielded a relative viability of 0.328.
NCI-H2023 gave a relative viability of 0.0903.
NCI-H1650 was tested, and the relative viability was 0.245.
Cell Line SK-MES-1 has a relative viability of 0.196.

Same assay, conditions: first compound 0.1 µM
NCI-H2342 was tested, and the relative viability was 0.748.
RERF-LC-KJ was tested, and the relative viability was 0.282.
NCI-H1651 gave a relative viability of 0.571.
For NCI-H1734, the relative viability was 0.513.
For NCI-H2009, the relative viability was 0.274.
Work on NCI-H596 yielded a relative viability of 1.08.
With SK-LU-1 the relative viability was 0.473.
For SW 1573, the relative viability was 0.098.
Work on LCLC-97TM1 yielded a relative viability of 0.242.
NCI-H661 was tested, and the relative viability was 0.337.
Cell Line EMC-BAC-2 has a relative viability of 0.338.
NCI-H2087 showed a relative viability of 0.173.
HCC-44 showed a relative viability of 0.977.
Cell Line NCI-H727 has a relative viability of 0.909.
For LK-2, the relative viability was 0.23.
In the case of NCI-H2126, the relative viability is reported as 0.587.
With NCI-H1648 the relative viability was 0.495.
In the case of NCI-H1793, the relative viability is reported as 0.456.
H3255 was tested, and the relative viability was 0.583.
Cell Line COR-L23 has a relative viability of 0.157.
In the case of COR-L 105, the relative viability is reported as 0.384.
With LC-2-ad the relative viability was 0.759.
With LU99A the relative viability was 0.945.
Cell Line ChaGo-K-1 has a relative viability of 0.527.
A549 showed a relative viability of 0.235.
Work on NCI-H522 yielded a relative viability of 0.601.
Work on SW 900 yielded a relative viability of 0.449.
Work on NCI-H520 yielded a relative viability of 0.47.
NCI-H2023 gave a relative viability of 0.0802.
With NCI-H1650 the relative viability was 0.135.
Cell Line SK-MES-1 has a relative viability of 0.194.
